pEC50: −log10 of the molar value.
Experiments:
[1] = target: T1, recombinant guanylate cyclase reporter cell line (Rattus norvegicus, UniProt P20595); test: sGC-activating activity in the CHO reporter cell in vitro; assay type: cell-based
T1 construct: expressed in transfected cells; host or cells: CHO reporter cell line
T1 sequence (P20595 1-619): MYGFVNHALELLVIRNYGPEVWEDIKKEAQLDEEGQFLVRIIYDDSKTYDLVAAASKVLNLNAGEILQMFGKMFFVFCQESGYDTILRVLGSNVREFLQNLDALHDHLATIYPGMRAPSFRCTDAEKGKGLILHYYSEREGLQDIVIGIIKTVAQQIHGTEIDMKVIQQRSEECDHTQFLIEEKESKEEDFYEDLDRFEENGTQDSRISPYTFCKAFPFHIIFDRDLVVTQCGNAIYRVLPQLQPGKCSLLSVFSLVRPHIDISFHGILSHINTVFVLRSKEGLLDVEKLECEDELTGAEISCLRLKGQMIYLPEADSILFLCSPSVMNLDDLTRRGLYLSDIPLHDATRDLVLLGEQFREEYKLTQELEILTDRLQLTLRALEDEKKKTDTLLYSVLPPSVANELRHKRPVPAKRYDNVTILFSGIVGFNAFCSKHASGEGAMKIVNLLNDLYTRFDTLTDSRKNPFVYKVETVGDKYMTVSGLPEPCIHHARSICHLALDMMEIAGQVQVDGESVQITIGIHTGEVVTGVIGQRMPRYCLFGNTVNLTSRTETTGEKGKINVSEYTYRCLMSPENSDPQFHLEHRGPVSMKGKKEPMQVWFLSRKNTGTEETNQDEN
T1 sequence (P19686 1-690 partner): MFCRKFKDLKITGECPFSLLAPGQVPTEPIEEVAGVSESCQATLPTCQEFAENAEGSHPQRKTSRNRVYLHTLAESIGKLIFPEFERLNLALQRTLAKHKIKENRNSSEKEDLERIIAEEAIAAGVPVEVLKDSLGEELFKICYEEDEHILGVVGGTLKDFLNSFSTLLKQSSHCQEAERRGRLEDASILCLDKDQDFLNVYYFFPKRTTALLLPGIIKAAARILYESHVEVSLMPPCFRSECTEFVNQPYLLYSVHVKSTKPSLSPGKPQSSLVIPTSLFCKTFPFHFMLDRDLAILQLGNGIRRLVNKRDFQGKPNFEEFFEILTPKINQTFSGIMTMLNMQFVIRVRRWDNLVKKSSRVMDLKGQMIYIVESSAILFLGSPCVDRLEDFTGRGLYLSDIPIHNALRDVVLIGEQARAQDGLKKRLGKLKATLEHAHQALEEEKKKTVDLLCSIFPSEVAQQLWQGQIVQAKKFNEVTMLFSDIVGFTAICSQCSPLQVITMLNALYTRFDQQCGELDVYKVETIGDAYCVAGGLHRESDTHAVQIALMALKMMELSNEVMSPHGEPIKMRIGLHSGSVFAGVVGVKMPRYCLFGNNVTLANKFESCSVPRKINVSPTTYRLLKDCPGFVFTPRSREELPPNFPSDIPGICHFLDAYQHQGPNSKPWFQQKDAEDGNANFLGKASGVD
Method: The cellular action of the compounds according to the invention is determined at a recombinant guanylate cyclase reporter cell line, as described in F. Wunder et al., Anal. Biochem. 339, 104-112 (2005).

[2] = target: T2, soluble guanylate cyclase (sGC) (Rattus norvegicus, UniProt P20595); test: Activating action at the sGC enzyme in vitro (PPi detection, luciferase); assay type: biochemical
T2 construct: made in house; host or cells: baculovirus/Sf9 insect cells
T2 sequence (P20595 1-619): T1 sequence (P20595 1-619)
T2 sequence (P19686 1-690 partner): T1 sequence (P19686 1-690 partner)
Method: Soluble guanylate cyclase (sGC) converts on stimulation GTP into cGMP and pyrophosphate (PPi). PPi is detected with the aid of the assay described below. The signal produced in the assay increases as the reaction progresses and serves as a measure of the sGC enzyme activity under the given stimulation.
To carry out the assay, 29 μl of enzyme solution [0-10 nM soluble guanylate cyclase (prepared according to Honicka et al., J. Mol. Med. 77, 14-23 (1999)) in 50 mM TEA, 2 mM MgCl2, 0.1% BSA (fraction V), 0.005% Brij®, pH 7.5] are initially introduced into a microplate, and 1 μl of the substance to be tested (as a serially diluted solution in DMSO) is added. The mixture is incubated at room temperature for 10 min. Then 20 μl of detection mix [1.2 nM Firefly Luciferase (Photinus pyralis luciferase, Promega), 29 μM dehydroluciferin (prepared according to Bitler & McElroy, Arch. Biochem. Biophys. 72, 358 (1957)), 122 μM luciferin (Promega), 153 μM ATP (Sigma) and 0.4 mM DTT (Sigma) in 50 mM TEA, 2 mM MgCl2, 0.1% BSA (fraction V), 0.005% Brij®, pH 7.5] are added. The enzyme reaction is started by adding 20 μl of substrate solution [1.25 mM guanosine 5′-triphosphate (Sigma) in 50 mM TEA, 2 mM MgCl2, 0.1% BSA (fraction V), 0.005% Brij®, pH 7.5] and measured continuously in a luminometer. The extent of the stimulation by the substance to be tested can be determined relative to the signal of the unstimulated reaction.
The activation of heme-free guanylate cyclase is examined by addition of 25 μM of 1H-1,2,4-oxadiazolo[4,3-a]quinoxalin-1-one (ODQ) to the enzyme solution and subsequent incubation for 30 minutes and compared to the stimulation of the native enzyme.

## O=C(O)c1ccc(CNC(=O)C(c2ccc(Cn3nc(-c4ccc(Cl)cc4)c4ccccc4c3=O)cc2)C2CCCC2)cc1 (racemic) [Example 1, 4-({[(4-{[4-(4-Chlorophenyl)-1-oxophthalazin-2(1H)-yl]methyl}phenyl)(cyclopentyl)acetyl]-amino}methyl)benzenecarboxylic acid]
[1]
  MEC (minimum effective concentration), sGC-activating activity in the CHO reporter cell: 10 nM

## O=C(O)c1ccc(CNC(=O)C(c2ccc(Cn3nc(-c4ccc(Cl)cc4)c4ccccc4c3=O)cc2)C2CCCC2)nc1 (racemic) [Example 11, 6-({[(4-{[4-(4-chlorophenyl)-1-oxophthalazin-2(1H)-yl]-methyl}phenyl)(cyclopentyl)acetyl]amino}methyl)-pyridine-3-carboxylic acid]
[1]
  MEC (minimum effective concentration), sGC-activating activity in the CHO reporter cell: 300 nM

## O=C(O)CCc1cccc(NC(=O)C(c2ccc(Cn3nnc4ccccc4c3=O)cc2)C2CCCC2)c1 (racemic) [Example 21, 3-{3-[(cyclopentyl{4-[(4-oxo-1,2,3-benzotriazin-3(4H)-yl)methyl]phenyl}acetyl)amino]phenyl}-propanoic acid]
[1]
  MEC (minimum effective concentration), sGC-activating activity in the CHO reporter cell: 30 nM

## O=C(O)CCc1cccc(NC(=O)C(c2ccc(Cn3nc(-c4ccccc4)oc3=O)cc2)C2CCCC2)c1 (racemic) [Example 22]
[1]
  MEC (minimum effective concentration), sGC-activating activity in the CHO reporter cell: 300 nM

## Cc1c(CCC(=O)O)cccc1NC(=O)C(c1ccc(CN2CCN(c3cccc(Cl)c3)C2=O)cc1)C1CCCC1 (racemic) [Example 26, 3-(3-{[(4-{[3-(3-chlorophenyl)-2-oxoimidazolidin-1-yl]methyl}phenyl)(cyclopentyl)acetyl]amino}-2-methylphenyl)propanoic acid]
[1]
  MEC (minimum effective concentration), sGC-activating activity in the CHO reporter cell: 300 nM

## Cc1c(CCC(=O)O)cccc1NC(=O)C(c1ccc(Cn2nnc3ccccc3c2=O)cc1)C1CCCC1 (racemic) [Example 29, 3-{3-[(cyclopentyl{4-[(4-oxo-1,2,3-benzotriazin-3(4H)-yl)methyl]phenyl}acetyl)amino]-2-methyl-phenyl}propanoic acid]
[1]
  MEC (minimum effective concentration), sGC-activating activity in the CHO reporter cell: 30 nM

## Cc1c(CCC(=O)O)cccc1NC(=O)C(c1ccc(Cn2nc(-c3ccccc3)oc2=O)cc1)C1CCCC1 (racemic) [Example 30, 3-{3-[(cyclopentyl{4-[(2-oxo-5-phenyl-1,3,4-oxadiazol-3(2H)-yl)methyl]phenyl}acetyl)amino]-2-methylphenyl}propanoic acid]
[1]
  MEC (minimum effective concentration), sGC-activating activity in the CHO reporter cell: 30 nM

## CCC(C)C(C(=O)Nc1cccc(CCC(=O)O)c1)c1ccc(CN2N=C(c3ccccc3)OCC2=O)cc1 (single isomer, unassigned) [Example 62, 3-{3-[(3-Methyl-2-{4-[(5-oxo-2-phenyl-5,6-dihydro-4H-1,3,4-oxadiazin-4-yl)methyl]-phenyl}pentanoyl)amino]phenyl}propanoic acid]
[1]
  MEC (minimum effective concentration), sGC-activating activity in the CHO reporter cell: 3 nM

## CC(C)C(C(=O)Nc1cccc(CCC(=O)O)c1)c1ccc(CN2N=C(c3ccccc3)OCC2=O)cc1 (single isomer, unassigned) [Example 105, 3-{3-[(3-mcthyl-2-{4-[(5-oxo-2-phcnyl-5,6-dihydro-4H-l,3,4-oxadiazin-4-yl)mcthyl]phenyl}butanoyl)-amino]phcnyl}propanoic acid]
[1]
  MEC (minimum effective concentration), sGC-activating activity in the CHO reporter cell: 10 nM

## CC(C)C(C(=O)Nc1ccc(CCC(=O)O)cc1)c1ccc(CN2N=C(c3ccccc3)OCC2=O)cc1 (single isomer, unassigned) [Example 106, 3-{4-[(3-mcthyl-2-{4-[(5-oxo-2-phcny1-5,6-dihydro-4H-1,3,4-oxadiazin-4-yl)mcthyl]phenyl}butanoyl)-amino]phcnyl}propanoic acid]
[1]
  MEC (minimum effective concentration), sGC-activating activity in the CHO reporter cell: 10 nM

## O=C(O)CC[C@H]1CC[C@H](NC(=O)C(c2ccc(CN3N=C(c4ccccc4)OCC3=O)cc2)C2CCCC2)CC1 (single isomer, unassigned) [Example 118, 3-{trans-4-[(cyclopcntyl{4-[(5-oxo-2-phcnyl-5,6-dihydro-4H-1,3,4-oxadiazin-4-yl)mcthyl]phcnyl}acetyl)-amino]cyclohcxyl}propanoic acid]
[1]
  MEC (minimum effective concentration), sGC-activating activity in the CHO reporter cell: 30 nM

## CC(CC(F)(F)F)C(C(=O)Nc1cccc(CC2(C(=O)O)CC2)c1)c1ccc(CN2N=C(c3ccccc3)OCC2=O)cc1 (single isomer, unassigned) [Example 160, 1-{3-[(5,5,5-trifluoro-3-methyl-2-{4-[(5-oxo-2-phenyl-5,6-dihydro-4H-1,3,4-oxadiazin-4-yl)methyl]phenyl}-pentanoyl)amino]benzyl}cyclopropanecarboxylic acid]
[1]
  MEC (minimum effective concentration), sGC-activating activity in the CHO reporter cell: 30 nM
[2]
  MEC (minimum effective concentration), activating action at the sGC enzyme: 3.4 nM
[2]; read-out: EC50 (concentration at 50% of maximum efficacy), activating action at the sGC enzyme
  pEC50: 7.46

## O=C(O)c1ccc(CNC(=O)C(c2ccc(CN3N=C(c4ccccc4)OCC3=O)cc2)C2CCCC2)cc1 (single isomer, unassigned; ent-4) [Example 38, ent-4-{[(Cyclopentyl{4-[(5-oxo-2-phenyl-5,6-dihydro-4H-1,3,4-oxadiazin-4-yl)methyl]phenyl}acetyl)amino]methyl}benzenecarboxylic acid]
[1]
  MEC (minimum effective concentration), sGC-activating activity in the CHO reporter cell: 30 nM

## COCC(C)C(C(=O)Nc1cccc(CCC(=O)O)c1C)c1ccc(CN2N=C(c3ccccc3)OCC2=O)cc1 (centres unmarked) [Example 3, 3-{3-[(4-Methoxy-3-methyl-2-{4-[(5-oxo-2-phenyl-5,6-dihydro-4H-1,3,4-oxadiazin-4-yl)-methyl]phenyl}butanoyl)amino]-2-methylphenyl}propanoic acid]
[1]
  MEC (minimum effective concentration), sGC-activating activity in the CHO reporter cell: 300 nM

## O=C(O)CCc1ccc(Cl)c(NC(=O)C(c2ccc(CN3N=C(c4ccccc4)OCC3=O)cc2)C2CCCC2)c1 (centres unmarked) [Example 187, 3-{4-chloro-3-[(cyclopentyl{4-[(5-oxo-2-phenyl-5,6-dihydro-4H-1,3,4-oxadiazin-4-yl)methyl]-phenyl}acetyl)amino]phenyl}propanoic acid]
[1]
  MEC (minimum effective concentration), sGC-activating activity in the CHO reporter cell: 1 nM
